# pIC50: −log10 of the molar value.
# Columns and labels:
# human SLC6A19 [1] = molecular target: T1, human SLC6A19 (Homo sapiens, UniProt Q695T7); test: Example B-1: L-[3H]leucine uptake, liquid scintillation, in CHO cells with doxycycline-inducible expression of human SLC6A19 and TMEM27; type: cell-based; conditions: read-out: SLC6A19_Radioligand Uptake Assay IC50
# T1 construct: expressed in transfected cells
# T1 sequence (Q695T7 1-634): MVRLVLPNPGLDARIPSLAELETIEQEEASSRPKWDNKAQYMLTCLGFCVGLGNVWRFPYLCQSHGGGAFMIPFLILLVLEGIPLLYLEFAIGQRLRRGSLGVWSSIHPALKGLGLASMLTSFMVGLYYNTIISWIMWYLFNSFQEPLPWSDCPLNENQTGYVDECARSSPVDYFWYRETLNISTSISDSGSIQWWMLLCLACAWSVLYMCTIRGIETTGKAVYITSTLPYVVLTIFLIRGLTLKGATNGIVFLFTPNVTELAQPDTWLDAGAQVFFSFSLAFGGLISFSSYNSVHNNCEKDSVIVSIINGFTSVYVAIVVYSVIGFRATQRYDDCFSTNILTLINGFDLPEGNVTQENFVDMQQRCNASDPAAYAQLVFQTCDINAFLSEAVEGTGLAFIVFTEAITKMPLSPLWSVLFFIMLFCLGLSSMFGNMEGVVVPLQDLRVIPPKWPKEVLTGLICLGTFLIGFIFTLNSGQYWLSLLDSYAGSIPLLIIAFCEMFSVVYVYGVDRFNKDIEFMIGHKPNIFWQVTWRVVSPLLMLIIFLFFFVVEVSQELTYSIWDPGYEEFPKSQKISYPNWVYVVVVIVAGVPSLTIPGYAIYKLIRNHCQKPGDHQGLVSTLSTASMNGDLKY
# T1 sequence (Q9HBJ8 15-222 partner): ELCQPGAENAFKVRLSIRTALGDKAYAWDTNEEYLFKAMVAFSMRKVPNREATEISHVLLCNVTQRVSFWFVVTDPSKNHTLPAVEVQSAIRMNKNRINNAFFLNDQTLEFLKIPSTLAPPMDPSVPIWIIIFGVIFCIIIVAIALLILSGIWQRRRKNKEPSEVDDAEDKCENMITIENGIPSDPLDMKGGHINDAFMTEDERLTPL
# Protocol: CHO cells with doxycycline-inducible expression of human SLC6A19 and TMEM27 were maintained in T150 cell culture treated flasks using cell culture media, which consisted of 1×DMEM/F12 (Gibco, 11330057), 10% Tet System-Approved FBS (Gibco, A4736401), 100 U/mL Penicillin-Streptomycin (Gibco, 15140122), 1×GlutaMAX™ Supplement (Gibco, 35050061), 1 mM Sodium Pyruvate (Gibco, 11360070), 1.1 mg/mL Sodium Bicarbonate (Gibco, 25080094), 5 μg/mL Blasticidin (InvivoGen, ant-bl-1), 150 μg/mL Hygromycin B Gold (InvivoGen, ant-hg-5), and 500 μg/mL G418 (Sigma-Aldrich, G8168-100 mL). In preparation for the assay, this media was aspirated and 5 mL of TryμLE™ Express Enzyme (Gibco, 12605010) was added to each flask to initiate cell dissociation. The flasks were then incubated (humidified, 37° C. with 5% CO2) for 2 minutes. After incubation, 10 mL of pre-warmed cell culture media was added to each flask. The cell suspension was collected and centrifuged for 5 minutes at 200xg.
# The supernatant was aspirated and the pellet was resuspended in 5 mL pre-warmed cell culture media. The resuspended cells were counted using the Countess Cell Counting Chamber (Invitrogen) and the cell concentration of the suspension was readjusted to 1 million live cells/mL using pre-warmed cell culture media. 25 uL/well (25,000 cells/well) of readjusted cell suspension was dispensed into Poly-D-Lysine 384-well white/clear plates (Corning, 354660) using a MultiDrop Combi (Thermo Electron Corp). To induce expression of Human SLC6A19 and TMEM27, 25 uL/well of cell culture media containing 2 μg/mL doxycycline was added to the first 23 columns of each plate resulting in a final concentration of […] doxycycline. 25 μL/well of cell culture media was added to the last column of each plate, to act as negative control wells for Human SLC6A19 and TMEM27 expression. Assay plates were then incubated (humidified, 37° C. with 5% CO2) for 18 hours. After incubation, the media was aspirated and the wells were washed 4 times with pre-warmed HBSS (Sigma-Aldrich, H8264-1L) using an Apricot S-Pipette S2 (Apricot Designs), such that 5 uL/well HBSS was remaining at the end of each wash. […] At this step, the final in-well DMSO concentration in the assay plate is 0.5%. All compounds were plated in a duplicate 8-point dilution series that consisted of 3-fold dilutions. […] Afterwards, 15 uL/well of 3.2 mM hot:cold leucine solution (1:15000 ratio of L-[3,4,5-3H(N)] Leucine (Perkin Elmer, NET460001MC) to L-Leucine (Sigma-Aldrich, L8912-25G) diluted with HBSS (Sigma-Aldrich, H8264-1L)) was added using the Viaflo 384 (Integra), for a final concentration of 1.6 mM hot:cold leucine solution. The plates were then incubated (humidified, 37° C. with 5% CO2) for 20 minutes to conduct the uptake reaction. Immediately after the incubation, the plates were washed 4 times with HBSS (Sigma-Aldrich, H8264-1L) using the ELx405 Microplate Washer (Biotek) to terminate the uptake reaction. After the washes, 50 uL/well Ultima Gold Scintillation Cocktail (Perkin Elmer, 6013326) was added to each well using the Viaflo 384 (Integra). The plates were then incubated (humidified, 37° C. with 5% CO2) on a plate shaker at 200 rpm for 2 hours. After incubation, the plates were removed from the shaker and kept at room temperature for 15 minutes.
# Liquid scintillation analysis was performed using the MicroBeta2 Microplate Counter (Perkin Elmer). Activity (%) was derived by normalizing the average of positive control compound treated wells to 0% and the average of DMSO (negative control) wells to 100%. Collaborative Drug Discovery software was used for graphing data.
# human SLC6A19 [2] = molecular target: T1, human SLC6A19; test: Example B2: 13C6,15N-isoleucine uptake, RapidFire mass spectrometry, in CHO cells with doxycycline-inducible expression of human SLC6A19 and TMEM27; type: cell-based; conditions: read-out: SLC6A19_RapidFire Uptake Assay IC50
# Procedure, shortened: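 CHO cells were induced with doxycycline to express human SLC6A19 with TMEM27, then pre-incubated 20 min at 37 °C with compounds (2-fold, 10-point, duplicate). Uptake of 13C6,15N-isoleucine (2 mM solution added) over a further 20 min was measured by RapidFire mass spectrometry, using 13C-leucine as internal standard.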
structure (smiles),measurement,setting,value
"CC(=O)N1CC[C@@H](C)[C@@H](N(C)C(=O)NCc2cc3cc(Cl)ccc3[nH]2)C1 (racemic) [Compound 203, 1-((3R,4R and 3S,4S)-1-acetyl-4-methylpiperidin-3-yl)-3-((5-chloro-1H-indol-2-yl)methyl)-1-methylurea]",pIC50,human SLC6A19 [1],5.66
same,pIC50,human SLC6A19 [2],5.31
"CC(=O)N1C[C@@H](C)C[C@@H](N(C)C(=O)NCc2cc3cc(Cl)ccc3[nH]2)C1 (racemic) [Compound 243, 1-((3R,5S and 3S,5R)-1-acetyl-5-methylpiperidin-3-yl)-3-((5-chloro-1H-indol-2-yl)methyl)-1-methylurea]",pIC50,human SLC6A19 [1],6.58
same,pIC50,human SLC6A19 [2],6.82
"CC(=O)N1C[C@@H](N(C)C(=O)NCc2cc3cc(Cl)ccc3[nH]2)CC[C@H]1C (single isomer, unassigned) [Compound 193, 1-((3S,6R or 3R,6S)-1-acetyl-6-methylpiperidin-3-yl)-3-((5-chloro-1H-indol-2-yl)methyl)-1-methylurea]",pIC50,human SLC6A19 [1],< 4.30
same,pIC50,human SLC6A19 [2],< 4.30
"CN(C(=O)NCc1cc2cc(Cl)ccc2[nH]1)[C@@H]1CCCN(C(=O)C2CC(O)C2)C1 (stereo partly drawn) [Compound 119, (R)-3-((5-chloro-1H-indol-2-yl)methyl)-1-(1-(3-hydroxycyclobutane-1-carbonyl)piperidin-3-yl)-1-methylurea]",pIC50,human SLC6A19 [1],6.20
same,pIC50,human SLC6A19 [2],6.08
"CN(C(=O)NCc1cc2cc(Cl)ccc2[nH]1)[C@@H]1CCCN(C(=O)CC2CCC2)C1 [Compound 120, (R)-3-((5-chloro-1H-indol-2-yl)methyl)-1-(1-(2-cyclobutylacetyl)piperidin-3-yl)-1-methylurea]",pIC50,human SLC6A19 [1],6.24
same,pIC50,human SLC6A19 [2],6.02
"CN(C(=O)NCc1cc2cc(Cl)ccc2[nH]1)[C@@H]1CCCN(C(=O)C2CC(CO)C2)C1 (stereo partly drawn) [Compound 121, (R)-3-((5-chloro-1H-indol-2-yl)methyl)-1-(1-(3-(hydroxymethyl)cyclobutane-1-carbonyl)piperidin-3-yl)-1-methylurea]",pIC50,human SLC6A19 [1],6.55
same,pIC50,human SLC6A19 [2],6.39
"CC(=O)N1CCC[C@@H](N(C)C(=O)NCc2cc3cc(Cl)c(OCc4cc(C)on4)cc3[nH]2)C1 [Compound 135, (R)-1-(1-acetylpiperidin-3-yl)-3-((5-chloro-6-((5-methylisoxazol-3-yl)methoxy)-1H-indol-2-yl)methyl)-1-methylurea]",pIC50,human SLC6A19 [1],6.79
same,pIC50,human SLC6A19 [2],6.49
"CCN(C(=O)NCc1cc2cc(Cl)c(OCc3ccon3)cc2[nH]1)[C@@H]1CCCN(C(C)=O)C1 [Compound 137, (R)-1-(1-acetylpiperidin-3-yl)-3-((5-chloro-6-(isoxazol-3-ylmethoxy)-1H-indol-2-yl)methyl)-1-ethylurea]",pIC50,human SLC6A19 [1],6.44
same,pIC50,human SLC6A19 [2],6.56
"CC(=O)N1CCC[C@@H](N(C)C(=O)NCCc2ccc(Cl)c(-c3cc4ccccc4[nH]3)c2)C1 [Compound 206, (R)-1-(1-acetylpiperidin-3-yl)-3-(4-chloro-3-(1H-indol-2-yl)phenethyl)-1-methylurea]",pIC50,human SLC6A19 [1],6.36
"CC(=O)N1CCC[C@@H](N(C)C(=O)NCCc2cc(-c3cc4ccccc4[nH]3)c(Cl)cc2Cl)C1 [Compound 207, (R)-1-(1-acetylpiperidin-3-yl)-3-(2,4-dichloro-5-(1H-indol-2-yl)phenethyl)-1-methylurea]",pIC50,human SLC6A19 [1],6.15
"CN(C)C(=O)N1CCC[C@@H](N(C)C(=O)NCc2cc3cc(Cl)ccc3[nH]2)C1 [Compound 208, (R)-3-(3-((5-chloro-1H-indol-2-yl)methyl)-1-methylureido)-N,N-dimethylpiperidine-1-carboxamide]",pIC50,human SLC6A19 [1],6.38
"CCNC(=O)N1CCC[C@@H](N(C)C(=O)NCc2cc3cc(Cl)ccc3[nH]2)C1 [Compound 209, (R)-3-(3-((5-chloro-1H-indol-2-yl)methyl)-1-methylureido)-N-ethylpiperidine-1-carboxamide]",pIC50,human SLC6A19 [1],6.90
"CN(C(=O)NCc1cc2cc(Cl)ccc2[nH]1)[C@@H]1CCCN(C(=O)NCC(F)(F)F)C1 [Compound 210, (R)-3-(3-((5-chloro-1H-indol-2-yl)methyl)-1-methylureido)-N-(2,2,2-trifluoroethyl)piperidine-1-carboxamide]",pIC50,human SLC6A19 [1],6.05
"CN(C(=O)NCc1cc2cc(Cl)ccc2[nH]1)[C@@H]1CCCN(C(=O)NC2CCC2)C1 [Compound 211, (R)-3-(3-((5-chloro-1H-indol-2-yl)methyl)-1-methylureido)-N-cyclobutylpiperidine-1-carboxamide]",pIC50,human SLC6A19 [1],5.87
"CC(=O)N1CCC[C@@H](N(C)C(=O)NCc2cc3cc(C(F)(F)F)ccc3[nH]2)C1 [Compound 212, (R)-1-(1-acetylpiperidin-3-yl)-1-methyl-3-((5-(trifluoromethyl)-1H-indol-2-yl)methyl)urea]",pIC50,human SLC6A19 [1],6.59
"CC(C)NC(=O)N1CCC[C@@H](N(C)C(=O)NCc2cc3cc(Cl)ccc3[nH]2)C1 [Compound 213, (R)-3-(3-((5-chloro-1H-indol-2-yl)methyl)-1-methylureido)-N-isopropylpiperidine-1-carboxamide]",pIC50,human SLC6A19 [1],6.09
"CC(=O)N1CCC[C@@H](N(C)C(=O)NCc2cc3ccc(C)cc3[nH]2)C1 [Compound 214, (R)-1-(1-acetylpiperidin-3-yl)-1-methyl-3-((6-methyl-1H-indol-2-yl)methyl)urea]",pIC50,human SLC6A19 [1],5.89
"CN(C(=O)NCc1cc2cc(Cl)ccc2[nH]1)[C@@H]1CCCN(C(=O)CCO)C1 [Compound 215, (R)-3-((5-chloro-1H-indol-2-yl)methyl)-1-(1-(3-hydroxypropanoyl)piperidin-3-yl)-1-methylurea]",pIC50,human SLC6A19 [1],6.20
"CN(C(=O)NCc1cc2cc(Cl)ccc2[nH]1)[C@@H]1CCCN(C(=O)N2CC(F)(F)C2)C1 [Compound 216, (R)-3-((5-chloro-1H-indol-2-yl)methyl)-1-(1-(3,3-difluoroazetidine-1-carbonyl)piperidin-3-yl)-1-methylurea]",pIC50,human SLC6A19 [1],6.09
"CN(C(=O)NCc1cc2cc(Cl)ccc2[nH]1)[C@@H]1CCCN(C(=O)Cc2cnoc2)C1 [Compound 246, (R)-3-((5-chloro-1H-indol-2-yl)methyl)-1-(1-(2-(isoxazol-4-yl)acetyl)piperidin-3-yl)-1-methylurea]",pIC50,human SLC6A19 [1],5.94
